Tests used:
[1] = target: T1, Steryl-sulfatase (Homo sapiens, UniProt P08842); experiment: Inhibition of steroid sulfatase in human JEG3 cells by scintillation spectrometry; format: cell-based, JEG-3
T1 sequence (P08842 whole entry): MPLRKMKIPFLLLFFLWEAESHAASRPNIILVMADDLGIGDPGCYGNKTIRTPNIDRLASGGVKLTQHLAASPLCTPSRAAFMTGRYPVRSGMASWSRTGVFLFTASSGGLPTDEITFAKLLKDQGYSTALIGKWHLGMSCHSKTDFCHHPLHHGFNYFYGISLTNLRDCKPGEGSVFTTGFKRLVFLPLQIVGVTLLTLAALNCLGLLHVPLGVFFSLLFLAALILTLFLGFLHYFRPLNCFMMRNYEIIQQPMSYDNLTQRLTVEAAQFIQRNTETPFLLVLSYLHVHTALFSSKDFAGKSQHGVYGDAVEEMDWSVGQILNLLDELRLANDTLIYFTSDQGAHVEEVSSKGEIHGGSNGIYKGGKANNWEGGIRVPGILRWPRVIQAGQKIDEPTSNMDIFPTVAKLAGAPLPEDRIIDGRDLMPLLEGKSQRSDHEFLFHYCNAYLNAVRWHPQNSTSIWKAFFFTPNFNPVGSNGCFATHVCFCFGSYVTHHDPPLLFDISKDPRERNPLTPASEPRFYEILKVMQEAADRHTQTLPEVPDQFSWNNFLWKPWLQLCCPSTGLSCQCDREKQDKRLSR

[2] = target: T2, Aromatase (Homo sapiens, UniProt P11511)
T2 sequence (P11511 whole entry): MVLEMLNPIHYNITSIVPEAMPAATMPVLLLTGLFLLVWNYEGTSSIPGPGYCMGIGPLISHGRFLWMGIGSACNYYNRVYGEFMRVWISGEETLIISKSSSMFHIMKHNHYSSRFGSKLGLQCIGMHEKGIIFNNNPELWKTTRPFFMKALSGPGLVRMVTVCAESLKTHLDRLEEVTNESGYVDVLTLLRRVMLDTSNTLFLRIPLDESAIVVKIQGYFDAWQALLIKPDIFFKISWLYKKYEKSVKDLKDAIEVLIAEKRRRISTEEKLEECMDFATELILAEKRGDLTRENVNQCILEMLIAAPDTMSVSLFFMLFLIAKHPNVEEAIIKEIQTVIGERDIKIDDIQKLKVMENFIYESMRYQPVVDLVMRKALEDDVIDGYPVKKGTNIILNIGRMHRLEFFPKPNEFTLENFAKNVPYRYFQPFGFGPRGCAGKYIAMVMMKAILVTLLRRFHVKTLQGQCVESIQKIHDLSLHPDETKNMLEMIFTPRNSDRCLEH
Description: Inhibition of aromatase in human JEG3 cells by scintillation spectrometry

[3] = target: T2, Aromatase; experiment: Inhibition of aromatase in human JEG3 cells at 1 uM by scintillation spectrometry; format: cell-based, JEG-3; conditions: for inhibition (INH): human, jeg-3, 1 µM
[4] = target: T2, Aromatase; experiment: Inhibition of aromatase in human JEG3 cells at 0.1 uM by scintillation spectrometry; format: cell-based; conditions: JEG-3, human
[5] = tested on: Rattus norvegicus; experiment: Inhibition of steroid sulfatase in PMSG-pretreated Wistar rat at 1 mg/kg, po administered after 3 days of PMSG challenge by liquid scintillation spectrometry; format: functional
[6] = target: T2, Aromatase; experiment: Inhibition of aromatase in human JEG3 cells at 10 uM by scintillation spectrometry; format: cell-based; conditions: JEG-3, human
[7] = tested on: Rattus norvegicus; experiment: Estrogenic toxicity in Wistar rat assessed as increase in uterine weight at 10 mg/kg, po for 4 days; format: organism-based; set-up: dose 10 mg/kg, route oral; conditions: in vivo, 96 h
[8] = tested on: Rattus norvegicus; experiment: Inhibition of aromatase in Wistar rat assessed as inhibition of PMSG-induced plasma E2 level at 1 mg/kg, po administered after 3 days of PMSG challenge by radioimmunoassay; format: functional
[9] = tested on: Rattus norvegicus; experiment: Inhibition of aromatase in PMSG-pretreated Wistar rat at 1 mg/kg, po administered after 3 days of PMSG challenge by radioimmunoassay
[10] = target: T3, Steryl-sulfatase (Homo sapiens) (UniProt P08842); experiment: Inhibition of steroid sulfatase in human JEG3 cells at 10 uM by scintillation spectrometry; format: cell-based; conditions: JEG-3
T3 sequence (whole entry): T1 sequence (P08842 whole entry)

[11] = tested on: Rattus norvegicus; experiment: Inhibition of aromatase in Wistar rat assessed as inhibition of PMSG-induced plasma E2 level at 0.1 mg/kg, po administered after 3 days of PMSG challenge by radioimmunoassay; format: functional
[12] = tested on: Rattus norvegicus; experiment: Inhibition of aromatase in PMSG-pretreated Wistar rat plasma at 0.1 mg/kg, po administered after 3 days of PMSG challenge by radioimmunoassay; format: functional
[13] = tested on: Rattus norvegicus; experiment: Inhibition of steroid sulfatase in PMSG-pretreated Wistar rat liver at 0.1 mg/kg, po administered after 3 days of PMSG challenge by liquid scintillation spectrometry

| IC50 [1] [nM] | IC50 [2] [nM] | SMILES | further results |
| --- | --- | --- | --- |
| 6330 | 80 | N#Cc1cc(Cn2cncn2)cc(-c2ccc(OS(N)(=O)=O)c(Cl)c2)c1 | – |
| – | – | N#Cc1ccc(-c2ccccc2)cc1Cn1cncn1 | inhibition (INH) [3]: 68.8%; inhibition at 0.1 µM [4]: 23.9% |
| – | 0.5 | CC(C)(C#N)c1cc(Cn2cncn2)cc(-c2ccccc2)c1 | – |
| > 10000 | 1.9 | N#Cc1ccc(Cn2cncn2)c(-c2ccc(OS(N)(=O)=O)c(Cl)c2)c1 | – |
| – | 380 | N#Cc1cc(Cn2cncn2)ccc1-c1ccc(O)c(Cl)c1 | – |
| – | 0.22 | N#Cc1ccc(Cn2cncn2)cc1-c1ccc(Cl)c(O)c1 | – |
| > 10000 | – | N#Cc1ccc(-c2cccc(OS(N)(=O)=O)c2)cc1Cn1cncn1 | inhibition at 1 µM ([3]; JEG-3, human): 63.4% |
| > 10000 | 0.5 | CN(C)S(=O)(=O)Oc1ccc(-c2cc(Cn3cncn3)ccc2C#N)cc1 | – |
| – | 24 | N#Cc1cc(Cn2cncn2)cc(-c2ccc(O)c(Cl)c2)c1 | – |
| – | 1.7 | N#Cc1ccc(Cn2cncn2)c(-c2ccccc2)c1 | – |
| – | – | CCCN1C(=O)CC2C3CCc4cc(OS(N)(=O)=O)ccc4C3CC[C@]2(C)C1=O (stereo partly specified) | inhibition in vivo at 1 mg/kg [5]: 99% |
| – | 920 | N#Cc1cc(Cn2cncn2)ccc1-c1ccc(O)cc1 | – |
| – | 0.2 | N#Cc1ccc(Cn2cncn2)cc1-c1ccccc1 | – |
| – | 112 | N#Cc1cc(Cn2cncn2)cc(-c2ccc(O)cc2)c1 | – |
| 16.3 | – | N#Cc1ccc(-c2ccc(OS(N)(=O)=O)cc2)c(C#N)c1 | inhibition at 10 µM [6]: 47% |
| – | 19 | N#Cc1cc(Cn2cncn2)cc(-c2ccc(F)cc2)c1 | – |
| 140 | 176 | N#Cc1ccc(-c2ccc(OS(N)(=O)=O)cc2)cc1Cn1cncn1 | – |
| – | – | N#Cc1ccc(N(Cc2ccc(OS(N)(=O)=O)c(Br)c2)n2cnnc2)cc1 | Activity [7]: Non-toxic |
| – | 6 | CC(C)(C#N)c1cc(Cn2cncn2)cc(-c2ccc(O)cc2)c1 | – |
| – | 0.2 | N#Cc1ccc(Cn2cncn2)cc1-c1ccc(O)cc1 | plasma estradiol (E2) level [8]: 94 pg/mL; inhibition in vivo at 1 mg/kg [5]: 10%; inhibition in vivo at 1 mg/kg [9]: 72% |
| – | 0.3 | CC(C)(C#N)c1cc(Cn2cncn2)cc(-c2ccc(OS(N)(=O)=O)c(Cl)c2)c1 | inhibition [10]: 68.2% |
| – | 29.3 | N#Cc1cc(Cn2cncn2)cc(-c2ccccc2)c1 | – |
| – | – | N#Cc1ccc(-c2ccc(O)cc2)cc1Cn1cncn1 | inhibition (INH) [3]: 76.4%; inhibition at 0.1 µM [4]: 35.1% |

| IC50 [1] [nM] | IC50 [2] [nM] | SMILES | further results |
| --- | --- | --- | --- |
| 160 | 70 | NS(=O)(=O)Oc1ccc(-c2cccc(Cn3cncn3)c2)cc1Cl | – |
| > 10000 | 280 | N#Cc1cc(Cn2cncn2)cc(-c2ccc(OS(N)(=O)=O)cc2)c1 | – |
| – | – | N#Cc1ccc(C(c2ccc(C#N)cc2)n2cncn2)cc1 [LETROZOLE] | Activity [11]: 49 pg/mL; inhibition in vivo at 0.1 mg/kg [12]: 85%; inhibition in vivo at 0.1 mg/kg [13]: 0% |
| – | – | N#Cc1ccc(Cn2cncn2)cc1-c1ccc(O)c(Cl)c1 | plasma estradiol (E2) level [8]: 297 pg/mL; inhibition in vivo at 1 mg/kg [5]: 5%; inhibition in vivo at 1 mg/kg [9]: 11% |
| – | 52 | N#Cc1ccc(-c2cc(C#N)cc(Cn3cncn3)c2)cc1 | – |
| 5.5 | – | N#Cc1ccc(Cn2cncn2)cc1-c1ccc(OS(N)(=O)=O)c(Cl)c1 | plasma estradiol (E2) level [8]: 132 pg/mL; inhibition in vivo at 1 mg/kg [5]: 92%; Activity [7]: Non-toxic; inhibition in vivo at 1 mg/kg [9]: 60% |
| – | 0.22 | N#Cc1ccc(Cn2cncn2)cc1-c1cccc(Cl)c1 | – |
| – | 74 | N#Cc1ccc(-c2ccc(O)c(Cl)c2)cc1Cn1cncn1 | – |
| 32.6 | 146 | N#Cc1ccc(-c2ccc(OS(N)(=O)=O)c(Cl)c2)cc1Cn1cncn1 | – |
| – | 4.6 | N#Cc1cc(Cn2cncn2)ccc1-c1ccccc1 | – |
| 35 | 2 | N#Cc1ccc(Cn2cncn2)cc1-c1ccc(OS(N)(=O)=O)cc1 | plasma estradiol (E2) level [8]: 124 pg/mL; inhibition in vivo at 1 mg/kg [5]: 77%; inhibition in vivo at 1 mg/kg [9]: 63% |
| – | 0.1 | CC(C)(C#N)c1cc(Cn2cncn2)cc(-c2ccc(O)c(Cl)c2)c1 | – |
| > 10000 | 2.4 | CN(C)S(=O)(=O)Oc1ccc(-c2cc(Cn3cncn3)ccc2C#N)cc1Cl | – |
| – | – | Oc1ccc(-c2cccc(Cn3cncn3)c2)cc1 | inhibition (INH) [3]: 79%; inhibition at 0.1 µM [4]: 24.6% |
| > 10000 | 0.35 | N#Cc1ccc(Cn2cncn2)cc1-c1ccc(Cl)c(OS(N)(=O)=O)c1 | – |
| – | 210 | c1ccc(-c2cccc(Cn3cncn3)c2)cc1 | – |
| 28.6 | 284 | N#Cc1cc(Cn2cncn2)ccc1-c1ccc(OS(N)(=O)=O)cc1 | – |
| 5500 | 275 | NS(=O)(=O)Oc1ccc(-c2cccc(Cn3cncn3)c2)cc1 | – |
| 29 | 571 | N#Cc1cc(Cn2cncn2)ccc1-c1ccc(OS(N)(=O)=O)c(Cl)c1 | – |
| – | 14.4 | N#Cc1ccc(-c2cccc(O)c2)cc1Cn1cncn1 | – |
| – | 0.8 | N#Cc1ccc(Cn2cncn2)c(-c2ccc(O)c(Cl)c2)c1 | – |
| > 10000 | 17.5 | CC(C)(C#N)c1cc(Cn2cncn2)cc(-c2ccc(OS(N)(=O)=O)cc2)c1 | – |
| – | – | Oc1ccc(-c2cccc(Cn3cncn3)c2)cc1Cl | inhibition (INH) [3]: 85.3%; inhibition at 0.1 µM [4]: 36.6% |

— ChEMBL document CHEMBL1157574 (J Med Chem, 2010)
